Entries after “also recorded” stand apart in the source; their conditions may differ.
Tests used:
solubility in water = type: physicochemical
[1] = variable-temperature powder X-ray diffraction (crystal form stability at high temperatures); type: physicochemical; details: heated from 30° C. to 80° C.; powder X-ray diffraction at 35, 45, 55, 65 and 75° C.
Experimental: The crystalline form III of dextral oxiracetam of the invention was placed on a single crystal silicon sample stage, heated from 30° C. to 80° C., and subjected to powder X-ray diffraction measurement at 35° C., 45° C., 55° C., 65° C. and 75° C., respectively. […] It can be seen that the crystalline form III of dextral oxiracetam of the invention has good stability at high temperatures. […] It can be confirmed that the crystalline form III of dextral oxiracetam is temperature stable. When the crystalline form III of dextral oxiracetam of the invention is used for storage or formulation processing, the requirements on processing and storage temperatures are reduced.

Structure (SMILES): NC(=O)CN1C[C@H](O)CC1=O [dextral oxiracetam]
- solubility (solubility in water): ≥ 100 mg/mL
- crystal transformation on heating (stability at high temperatures) [1]: does not show a phenomenon of crystal transformation; also recorded: does not exhibit crystal transformation phenomenon
